Assay results from article PMC9234961 (Journal of Medicinal Chemistry, 2022).
Like-named read-outs stand apart in the source and are kept apart here.

Legend:
kinases (468) [1] = target: kinases (468) (Homo sapiens, UniProt O14936); settings: CASK; 1000 nM
kinases (468) [2] = target: kinases (468) (Homo sapiens, UniProt O43683); settings: BUB1; 1000 nM
kinases (468) [3] = target: kinases (468) (Homo sapiens, UniProt O94804); settings: LOK (STK10); 1000 nM
kinases (468) [4] = target: kinases (468) (Homo sapiens, UniProt P00519, M351T); settings: ABL1(M351T)-phosphorylated; 1000 nM
kinases (468) [5] = target: kinases (468) (Homo sapiens, UniProt P00519, T315I); settings: 1000 nM
kinases (468) [6] = target: kinases (468) (Homo sapiens, UniProt P00533, DEL746-750); settings: EGFR(E746-A750del); 1000 nM
kinases (468) [7] = target: kinases (468) (Homo sapiens, UniProt P00533, L858R); settings: EGFR(L858R); 1000 nM
kinases (468) [8] = target: kinases (468) (Homo sapiens, UniProt P04629); settings: kinase TRKA (Entrez NTRK1); compound concentration 1000 nM
kinases (468) [9] = target: kinases (468) (Homo sapiens, UniProt P07333); settings: 1000 nM
kinases (468) [10] = target: kinases (468) (Homo sapiens, UniProt P07947); settings: kinase YES (Entrez YES1); compound concentration 1000 nM
kinases (468) [11] = target: kinases (468) (Homo sapiens, UniProt P08581); settings: MET; 1000 nM
kinases (468) [12] = target: kinases (468) (Homo sapiens, UniProt P22607); settings: FGFR3; 1000 nM
kinases (468) [13] = target: kinases (468) (Homo sapiens, UniProt P22694); settings: PKAC-beta (PRKACB); 1000 nM
kinases (468) [14] = target: kinases (468) (Homo sapiens, UniProt P24723); settings: PRKCH; 1000 nM
kinases (468) [15] = target: kinases (468) (Homo sapiens, UniProt P36894); settings: BMPR1A; 1000 nM
kinases (468) [16] = target: kinases (468) (Homo sapiens, UniProt P42336, H1047L); settings: PIK3CA(H1047L); 1000 nM
kinases (468) [17] = target: kinases (468) (Homo sapiens, UniProt P46734); settings: MEK3 (MAP2K3); 1000 nM
kinases (468) [18] = target: kinases (468) (Homo sapiens, UniProt P49840); settings: GSK3A; 1000 nM
kinases (468) [19] = target: kinases (468) (Homo sapiens, UniProt Q15569); settings: kinase TESK1 (Entrez TESK1); compound concentration 1000 nM
kinases (468) [20] = target: kinases (468) (Homo sapiens, UniProt Q16539); settings: p38-alpha (MAPK14); 1000 nM
kinases (468) [21] = target: kinases (468) (Homo sapiens, UniProt Q16584); settings: MLK3 (MAP3K11); 1000 nM
kinases (468) [22] = target: kinases (468) (Homo sapiens, UniProt Q16832); settings: DDR2; 1000 nM
kinases (468) [23] = target: kinases (468) (Homo sapiens, UniProt Q8TBX8); settings: PIP5K2C (PIP4K2C); 1000 nM
kinases (468) [24] = target: kinases (468) (Homo sapiens, UniProt Q96J92); settings: kinase WNK4 (Entrez WNK4); compound concentration 1000 nM
kinases (468) [25] = target: kinases (468) (Homo sapiens, UniProt Q96RR4); settings: CAMKK2; 1000 nM
kinases (468) [26] = target: kinases (468) (Homo sapiens, UniProt Q99755); settings: PIP5K1A; 1000 nM
kinases (468) [27] = target: kinases (468) (Homo sapiens, UniProt Q9BUB5); settings: MKNK1; 1000 nM
kinases (468) [28] = target: kinases (468) (Homo sapiens, UniProt Q9BWU1); settings: CDK11 (CDK19); 1000 nM
kinases (468) [29] = target: kinases (468) (Homo sapiens, UniProt Q9BYP7); settings: kinase WNK3 (Entrez WNK3); compound concentration 1000 nM
kinases (468) [30] = target: kinases (468) (Homo sapiens, UniProt Q9H2K8); settings: kinase TAOK3 (Entrez TAOK3); compound concentration 1000 nM
kinases (468) [31] = target: kinases (468) (Homo sapiens, UniProt Q9H4A3); settings: kinase WNK1 (Entrez WNK1); compound concentration 1000 nM
kinases (468) [32] = target: kinases (468) (Homo sapiens, UniProt Q9H4B4); settings: PLK3; 1000 nM
kinases (468) [33] = target: kinases (468) (Homo sapiens, UniProt Q9NQU5); settings: PAK6; 1000 nM
kinases (468) [34] = target: kinases (468) (Homo sapiens, UniProt Q9UL54); settings: kinase TAOK2 (Entrez TAOK2); compound concentration 1000 nM

kinases (468) (Homo sapiens, UniProt P07333), sequence (P07333 20-972): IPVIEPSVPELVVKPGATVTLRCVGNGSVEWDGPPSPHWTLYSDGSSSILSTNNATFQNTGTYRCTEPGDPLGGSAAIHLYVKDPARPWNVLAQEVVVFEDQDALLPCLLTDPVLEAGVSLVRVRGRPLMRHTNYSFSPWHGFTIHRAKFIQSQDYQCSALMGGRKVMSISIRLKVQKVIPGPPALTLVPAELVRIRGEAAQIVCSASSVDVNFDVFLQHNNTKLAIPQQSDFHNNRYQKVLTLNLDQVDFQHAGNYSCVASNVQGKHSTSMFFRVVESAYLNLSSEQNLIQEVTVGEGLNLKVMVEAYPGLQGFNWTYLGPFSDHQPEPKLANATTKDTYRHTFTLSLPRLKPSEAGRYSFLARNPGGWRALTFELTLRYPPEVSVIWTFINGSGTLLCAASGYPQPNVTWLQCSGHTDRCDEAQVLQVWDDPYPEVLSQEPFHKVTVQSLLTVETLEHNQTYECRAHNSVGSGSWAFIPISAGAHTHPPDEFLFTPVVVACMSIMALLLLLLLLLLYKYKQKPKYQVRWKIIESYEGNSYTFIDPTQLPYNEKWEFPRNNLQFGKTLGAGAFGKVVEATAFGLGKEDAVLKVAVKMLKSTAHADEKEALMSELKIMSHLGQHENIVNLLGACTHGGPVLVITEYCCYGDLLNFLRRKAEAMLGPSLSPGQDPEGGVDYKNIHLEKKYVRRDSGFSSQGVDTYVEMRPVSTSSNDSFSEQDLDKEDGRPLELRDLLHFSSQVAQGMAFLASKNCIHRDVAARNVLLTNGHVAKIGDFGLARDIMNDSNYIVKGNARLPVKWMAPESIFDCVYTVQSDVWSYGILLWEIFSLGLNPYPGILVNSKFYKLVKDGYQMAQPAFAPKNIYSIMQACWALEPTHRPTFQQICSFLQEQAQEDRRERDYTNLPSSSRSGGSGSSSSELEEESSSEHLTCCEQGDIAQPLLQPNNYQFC
kinases (468) (Homo sapiens, UniProt Q99755), sequence (Q99755 whole entry): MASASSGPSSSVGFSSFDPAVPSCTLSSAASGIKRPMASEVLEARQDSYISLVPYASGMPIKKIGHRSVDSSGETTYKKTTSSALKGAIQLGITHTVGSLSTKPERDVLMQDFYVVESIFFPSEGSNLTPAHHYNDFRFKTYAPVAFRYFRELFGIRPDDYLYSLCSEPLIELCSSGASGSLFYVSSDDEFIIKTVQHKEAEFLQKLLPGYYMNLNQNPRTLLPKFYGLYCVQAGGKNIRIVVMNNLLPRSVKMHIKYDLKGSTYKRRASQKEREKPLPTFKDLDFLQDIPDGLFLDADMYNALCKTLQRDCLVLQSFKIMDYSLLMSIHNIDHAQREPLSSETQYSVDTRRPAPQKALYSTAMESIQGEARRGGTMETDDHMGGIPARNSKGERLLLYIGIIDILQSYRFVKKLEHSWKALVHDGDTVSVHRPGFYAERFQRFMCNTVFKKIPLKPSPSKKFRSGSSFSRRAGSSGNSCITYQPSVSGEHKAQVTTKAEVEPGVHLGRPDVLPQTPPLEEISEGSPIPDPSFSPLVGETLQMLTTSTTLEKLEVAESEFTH
kinases (468) (Homo sapiens, UniProt Q96RR4), sequence (Q96RR4 whole entry): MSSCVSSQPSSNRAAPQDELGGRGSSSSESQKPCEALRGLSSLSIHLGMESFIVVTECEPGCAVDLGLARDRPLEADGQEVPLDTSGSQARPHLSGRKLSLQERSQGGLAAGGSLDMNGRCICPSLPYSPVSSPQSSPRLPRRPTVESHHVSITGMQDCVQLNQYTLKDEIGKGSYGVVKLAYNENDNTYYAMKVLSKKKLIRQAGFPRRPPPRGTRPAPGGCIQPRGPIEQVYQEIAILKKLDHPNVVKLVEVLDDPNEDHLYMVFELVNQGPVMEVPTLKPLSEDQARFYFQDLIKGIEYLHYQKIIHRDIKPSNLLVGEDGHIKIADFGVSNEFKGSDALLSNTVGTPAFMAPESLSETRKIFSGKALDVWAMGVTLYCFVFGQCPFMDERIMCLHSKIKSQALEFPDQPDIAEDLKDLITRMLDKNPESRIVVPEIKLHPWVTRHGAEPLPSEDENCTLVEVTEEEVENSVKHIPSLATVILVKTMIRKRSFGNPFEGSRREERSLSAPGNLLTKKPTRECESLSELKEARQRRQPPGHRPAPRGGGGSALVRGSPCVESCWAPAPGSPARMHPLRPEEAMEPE
kinases (468) (Homo sapiens, UniProt Q15569), sequence (Q15569 whole entry): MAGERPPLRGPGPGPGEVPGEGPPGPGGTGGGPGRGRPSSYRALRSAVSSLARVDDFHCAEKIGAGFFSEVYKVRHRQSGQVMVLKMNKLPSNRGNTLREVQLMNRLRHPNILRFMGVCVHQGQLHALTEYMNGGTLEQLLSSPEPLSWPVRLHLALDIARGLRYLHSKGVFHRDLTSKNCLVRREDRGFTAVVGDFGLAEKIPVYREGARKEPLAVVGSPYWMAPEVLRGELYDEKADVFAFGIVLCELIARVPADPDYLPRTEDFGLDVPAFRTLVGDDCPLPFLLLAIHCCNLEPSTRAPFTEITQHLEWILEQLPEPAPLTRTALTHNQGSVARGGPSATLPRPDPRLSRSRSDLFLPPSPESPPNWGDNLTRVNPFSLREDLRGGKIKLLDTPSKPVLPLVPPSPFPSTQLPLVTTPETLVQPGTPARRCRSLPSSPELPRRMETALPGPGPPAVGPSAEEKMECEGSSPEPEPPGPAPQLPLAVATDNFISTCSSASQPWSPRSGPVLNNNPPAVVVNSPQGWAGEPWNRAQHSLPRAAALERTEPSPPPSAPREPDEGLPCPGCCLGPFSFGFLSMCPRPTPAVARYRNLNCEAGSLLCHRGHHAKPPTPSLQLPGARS
kinases (468) (Homo sapiens, UniProt Q8TBX8), sequence (Q8TBX8 whole entry): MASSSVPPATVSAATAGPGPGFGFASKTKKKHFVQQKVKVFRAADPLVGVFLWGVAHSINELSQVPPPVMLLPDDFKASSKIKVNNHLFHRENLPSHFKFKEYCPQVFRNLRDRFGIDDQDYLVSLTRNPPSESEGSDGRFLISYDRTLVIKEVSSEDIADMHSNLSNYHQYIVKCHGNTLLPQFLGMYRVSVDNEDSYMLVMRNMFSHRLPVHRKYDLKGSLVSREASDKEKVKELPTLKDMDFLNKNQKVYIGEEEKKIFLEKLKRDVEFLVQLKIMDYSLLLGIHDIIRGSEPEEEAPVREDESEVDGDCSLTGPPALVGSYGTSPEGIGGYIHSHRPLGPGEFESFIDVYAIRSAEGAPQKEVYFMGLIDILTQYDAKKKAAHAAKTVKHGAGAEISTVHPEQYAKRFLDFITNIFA
kinases (468) (Homo sapiens, UniProt Q16832), sequence (Q16832 22-855): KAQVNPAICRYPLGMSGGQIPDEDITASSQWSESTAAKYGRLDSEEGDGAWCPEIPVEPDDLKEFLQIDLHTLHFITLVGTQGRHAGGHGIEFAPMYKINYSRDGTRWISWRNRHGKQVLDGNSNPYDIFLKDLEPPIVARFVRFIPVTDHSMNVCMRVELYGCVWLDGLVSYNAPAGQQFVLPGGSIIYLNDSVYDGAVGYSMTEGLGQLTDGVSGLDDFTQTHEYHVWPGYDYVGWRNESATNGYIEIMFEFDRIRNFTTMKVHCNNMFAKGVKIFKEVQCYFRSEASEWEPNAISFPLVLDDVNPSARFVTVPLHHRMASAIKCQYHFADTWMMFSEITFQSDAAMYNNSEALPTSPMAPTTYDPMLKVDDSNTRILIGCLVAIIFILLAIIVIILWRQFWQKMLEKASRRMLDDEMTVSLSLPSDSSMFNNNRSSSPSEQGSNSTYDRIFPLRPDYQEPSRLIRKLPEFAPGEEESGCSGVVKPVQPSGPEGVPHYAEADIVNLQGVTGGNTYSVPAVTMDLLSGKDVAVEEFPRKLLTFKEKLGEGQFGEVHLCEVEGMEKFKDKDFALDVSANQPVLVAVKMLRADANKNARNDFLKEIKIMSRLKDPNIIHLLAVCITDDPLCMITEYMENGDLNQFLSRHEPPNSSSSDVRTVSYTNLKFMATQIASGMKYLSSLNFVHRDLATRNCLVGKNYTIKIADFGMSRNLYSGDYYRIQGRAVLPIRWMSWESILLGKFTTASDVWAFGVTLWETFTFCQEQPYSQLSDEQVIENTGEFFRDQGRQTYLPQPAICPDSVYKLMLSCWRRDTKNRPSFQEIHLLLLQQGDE
kinases (468) (Homo sapiens, UniProt Q16539), sequence (Q16539 whole entry): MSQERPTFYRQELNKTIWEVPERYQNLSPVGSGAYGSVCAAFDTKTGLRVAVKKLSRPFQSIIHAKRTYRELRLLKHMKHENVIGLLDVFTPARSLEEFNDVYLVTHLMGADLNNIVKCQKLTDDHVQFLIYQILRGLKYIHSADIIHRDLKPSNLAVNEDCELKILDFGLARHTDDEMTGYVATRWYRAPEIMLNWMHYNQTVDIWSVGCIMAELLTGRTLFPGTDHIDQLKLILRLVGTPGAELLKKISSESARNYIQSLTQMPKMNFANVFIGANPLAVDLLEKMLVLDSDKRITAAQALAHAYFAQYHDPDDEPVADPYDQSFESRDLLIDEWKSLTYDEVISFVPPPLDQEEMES
kinases (468) (Homo sapiens, UniProt P36894), sequence (P36894 24-532): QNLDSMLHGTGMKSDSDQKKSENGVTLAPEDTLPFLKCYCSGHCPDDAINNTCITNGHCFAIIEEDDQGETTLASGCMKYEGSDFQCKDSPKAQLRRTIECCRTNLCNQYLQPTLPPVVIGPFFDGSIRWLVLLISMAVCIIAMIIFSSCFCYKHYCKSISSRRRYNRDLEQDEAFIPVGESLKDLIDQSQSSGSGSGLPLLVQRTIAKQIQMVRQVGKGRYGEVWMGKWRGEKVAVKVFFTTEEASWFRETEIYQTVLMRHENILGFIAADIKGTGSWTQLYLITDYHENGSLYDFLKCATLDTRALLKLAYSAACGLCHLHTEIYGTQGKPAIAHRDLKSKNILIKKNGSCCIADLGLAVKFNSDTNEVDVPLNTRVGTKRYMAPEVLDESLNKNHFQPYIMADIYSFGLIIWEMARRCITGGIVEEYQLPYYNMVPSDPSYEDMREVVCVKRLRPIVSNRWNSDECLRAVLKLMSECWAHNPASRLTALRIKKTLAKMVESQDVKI

For C[C@H]1C[C@@H](O)CN(c2ncc(Cl)c(Nc3ccc4c(c3)c3c(c(=O)n4C)OCC(F)(F)[C@H](C4CC4)N3)n2)C1 [CCT373566_9A], the “Percent Control” value (kinases (468) [1]) was 92%, the “Percent Control” value (kinases (468) [2]) was 94% and the “Percent Control” value (kinases (468) [3]) was 100%. The “Percent Control” value (kinases (468) [4]) was 90%, the “Percent Control” value (kinases (468) [5]; ABL1(T315I)-nonphosphorylated) was 89% and the “Percent Control” value (kinases (468) [5]; ABL1(T315I)-phosphorylated) was 88%. The “Percent Control” value (kinases (468) [6]) was 100%, the “Percent Control” value (kinases (468) [7]) was 100% and the “Percent Control” value (kinases (468) [8]) was 100%. For the same compound, the “Percent Control” value (kinases (468) [9]; CSF1R-autoinhibited) was 77%, the “Percent Control” value (kinases (468) [9]; CSF1R) was 100% and the “Percent Control” value (kinases (468) [10]) was 99%. For the same compound, the “Percent Control” value (kinases (468) [11]) was 100%, the “Percent Control” value (kinases (468) [12]) was 100% and the “Percent Control” value (kinases (468) [13]) was 80%. The “Percent Control” value (kinases (468) [14]) was 94%, the “Percent Control” value (kinases (468) [15]) was 100% and the “Percent Control” value (kinases (468) [16]) was 84%. The “Percent Control” value (kinases (468) [17]) was 100%, the “Percent Control” value (kinases (468) [18]) was 95% and the “Percent Control” value (kinases (468) [19]) was 100%. The “Percent Control” value (kinases (468) [20]) was 96%, the “Percent Control” value (kinases (468) [21]) was 100% and the “Percent Control” value (kinases (468) [22]) was 100%. For the same compound, the “Percent Control” value (kinases (468) [23]) was 82%, the “Percent Control” value (kinases (468) [24]) was 42% and the “Percent Control” value (kinases (468) [25]) was 88%. For the same compound, the “Percent Control” value (kinases (468) [26]) was 77%, the “Percent Control” value (kinases (468) [27]) was 91% and the “Percent Control” value (kinases (468) [28]) was 99%. For the same compound, the “Percent Control” value (kinases (468) [29]) was 96%, the “Percent Control” value (kinases (468) [30]) was 91% and the “Percent Control” value (kinases (468) [31]) was 100%. For the same compound, the “Percent Control” value (kinases (468) [32]) was 78%, the “Percent Control” value (kinases (468) [33]) was 93% and the “Percent Control” value (kinases (468) [34]) was 87%.
